Results: patent US10870638B2, “Pyridazinone compound or its salt, and herbicide containing it” (ISHIHARA SANGYO KAISHA, LTD., priority 2016, dated 2020)

Legend:
Type in all cases: in vivo
Settings in all cases: active ingredient amount 31 g/ha, 14th day after application
[1] = system: soybean (Glycine max Merr.); assay: Test Example 1: foliar treatment, growth inhibition rate on 14th day
Procedure, shortened: (§1)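 Compounds applied once to leaves of pot-grown plants; wild oat at 0.4–1.2 leaf, foxtail 0.5–3.2, rice 0.2–2.7, soybean primary leaf. Inhibition estimated by eye on day 14.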

rice (Oryza sativa L.) [2] = assay: as above
Procedure, shortened: as §1

[3] = system: barnyardgrass (Echinochloa crus-qalli L.); assay: as above
Procedure, shortened: (§2)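 Visual 0–100% inhibition scoring (100 = complete kill) at 14 days after foliar treatment of soil-grown seedlings at species-specific leaf stages, with the compound sprayed as a wettable powder or emulsifiable concentrate dilution.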

[4] = system: crabgrass (Digitaria sanquinalis L.); assay: as above
Procedure, shortened: as §2

[5] = system: wild oat (Avena fatua L.); assay: as above
Procedure, shortened: as §1

[6] = system: redroot pigweed (Amaranthus retroflexus L.); assay: as above
Procedure, shortened: as §2

[7] = system: green foxtail (Setaria viridis L.); assay: as above
Procedure, shortened: as §1

corn (Zea mays L.) [8] = assay: as above
Procedure, shortened: as §2

[9] = system: italian ryegrass (Lolium multiflorum Lam.); assay: as above
Procedure, shortened: as §2

[10] = system: wheat (Triticum aestivum L.); assay: as above
Procedure, shortened: as §2

[11] = system: prickly sida (Sida spinosa L.); assay: Test Example 2: soil application on the day after sowing, growth inhibition rate on 14th day
Procedure, shortened: (§3)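 Read-out is visual percent growth inhibition 14 days post-application, scaled from 0 (as non-treated) to 100 (complete kill). Treatment: soil application by small sprayer the day after sowing, compound formulations diluted in water equivalent to 1,000 L/ha.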

[12] = system: soybean (Glycine max Merr.); assay: as above
Procedure, shortened: as §3

rice (Oryza sativa L.) [13] = assay: as above
Procedure, shortened: as §3

[14] = system: velvetleaf (Abutilon theophrasti MEDIC.); assay: as above
Procedure, shortened: as §3

[15] = system: barnyardgrass (Echinochloa crus-qalli L.); assay: as above
Procedure, shortened: as §3

[16] = system: redroot pigweed (Amaranthus retroflexus L.); assay: as above
Procedure, shortened: as §3

[17] = system: green foxtail (Setaria viridis L.); assay: as above
Procedure, shortened: as §3

corn (Zea mays L.) [18] = assay: as above
Procedure, shortened: as §3

[19] = system: crabgrass (Digitaris sanquinalis L.); assay: as above
Procedure, shortened: as §3

[20] = system: wheat (Triticum aestivum L.); assay: as above
Procedure, shortened: as §3

CCOC(=O)Oc1c(C)nn(C)c(=O)c1-c1cc(Oc2ncc(C(F)(F)F)cc2Cl)ccc1C [1-41]
Growth inhibition rate (%) Soybean [1]: 0% | Growth inhibition rate (%) Rice (rice (Oryza sativa L.) [2]): 80% | Growth inhibition rate (%) Barnyardgrass [3]: 100% | Growth inhibition rate (%) Crabgrass [4]: 99% | Growth inhibition rate (%) Wild oat [5]: 99% | Growth inhibition rate (%) Redroot pigweed [6]: 10% | Growth inhibition rate (%) Green foxtail [7]: 100% | Growth inhibition rate (%) Corn (corn (Zea mays L.) [8]): 98% | Growth inhibition rate (%) Italian ryegrass [9]: 100% | Growth inhibition rate (%) Wheat [10]: 98% | Growth inhibition rate (%) Prickly sida [11]: 0% | Growth inhibition rate (%) Soybean [12]: 0% | Growth inhibition rate (%) Rice (rice (Oryza sativa L.) [13]): 0% | Growth inhibition rate (%) Velvetleaf [14]: 0% | Growth inhibition rate (%) Barnyardgrass [15]: 100% | Growth inhibition rate (%) Redroot pigweed [16]: 0% | Growth inhibition rate (%) Green foxtail [17]: 100% | Growth inhibition rate (%) Corn (corn (Zea mays L.) [18]): 20% | Growth inhibition rate (%) Crabgrass [19]: 100% | Growth inhibition rate (%) Wheat [20]: 0%

CCc1ccc(Oc2nc3ccc(Cl)cc3o2)cc1-c1c(OC(C)=O)cnn(C)c1=O [Compound 2-160]
Growth inhibition rate (%) Soybean [1]: 30% | Growth inhibition rate (%) Rice (rice (Oryza sativa L.) [2]): 100% | Growth inhibition rate (%) Barnyardgrass [3]: 100% | Growth inhibition rate (%) Crabgrass [4]: 100% | Growth inhibition rate (%) Wild oat [5]: 100% | Growth inhibition rate (%) Redroot pigweed [6]: 0% | Growth inhibition rate (%) Green foxtail [7]: 100% | Growth inhibition rate (%) Corn (corn (Zea mays L.) [8]): 100% | Growth inhibition rate (%) Italian ryegrass [9]: 100% | Growth inhibition rate (%) Wheat [10]: 99% | Growth inhibition rate (%) Prickly sida [11]: 50% | Growth inhibition rate (%) Soybean [12]: 0% | Growth inhibition rate (%) Rice (rice (Oryza sativa L.) [13]): 0% | Growth inhibition rate (%) Velvetleaf [14]: 0% | Growth inhibition rate (%) Barnyardgrass [15]: 100% | Growth inhibition rate (%) Redroot pigweed [16]: 95% | Growth inhibition rate (%) Green foxtail [17]: 100% | Growth inhibition rate (%) Corn (corn (Zea mays L.) [18]): 0% | Growth inhibition rate (%) Crabgrass [19]: 99% | Growth inhibition rate (%) Wheat [20]: 0%

CC(=O)Oc1c(C)nn(C)c(=O)c1-c1cc(Oc2ncc(C(F)(F)F)cc2Cl)ccc1C1CC1 [1-150]
Growth inhibition rate (%) Soybean [1]: 0% | Growth inhibition rate (%) Rice (rice (Oryza sativa L.) [2]): 88% | Growth inhibition rate (%) Barnyardgrass [3]: 100% | Growth inhibition rate (%) Crabgrass [4]: 100% | Growth inhibition rate (%) Wild oat [5]: 100% | Growth inhibition rate (%) Redroot pigweed [6]: 0% | Growth inhibition rate (%) Green foxtail [7]: 100% | Growth inhibition rate (%) Corn (corn (Zea mays L.) [8]): 95% | Growth inhibition rate (%) Italian ryegrass [9]: 100% | Growth inhibition rate (%) Wheat [10]: 99% | Growth inhibition rate (%) Prickly sida [11]: 0% | Growth inhibition rate (%) Soybean [12]: 0% | Growth inhibition rate (%) Rice (rice (Oryza sativa L.) [13]): 0% | Growth inhibition rate (%) Velvetleaf [14]: 0% | Growth inhibition rate (%) Barnyardgrass [15]: 99% | Growth inhibition rate (%) Redroot pigweed [16]: 0% | Growth inhibition rate (%) Green foxtail [17]: 98% | Growth inhibition rate (%) Corn (corn (Zea mays L.) [18]): 0% | Growth inhibition rate (%) Crabgrass [19]: 98% | Growth inhibition rate (%) Wheat [20]: 0%

Cc1ccc(Oc2ncc(C(F)(F)F)cc2Cl)cc1-c1c(OS(C)(=O)=O)c(C)nn(C)c1=O [1-62]
Growth inhibition rate (%) Soybean [1]: 0% | Growth inhibition rate (%) Rice (rice (Oryza sativa L.) [2]): 88% | Growth inhibition rate (%) Barnyardgrass [3]: 100% | Growth inhibition rate (%) Crabgrass [4]: 100% | Growth inhibition rate (%) Wild oat [5]: 99% | Growth inhibition rate (%) Redroot pigweed [6]: 0% | Growth inhibition rate (%) Green foxtail [7]: 100% | Growth inhibition rate (%) Corn (corn (Zea mays L.) [8]): 100% | Growth inhibition rate (%) Italian ryegrass [9]: 98% | Growth inhibition rate (%) Wheat [10]: 90% | Growth inhibition rate (%) Prickly sida [11]: 0% | Growth inhibition rate (%) Soybean [12]: 0% | Growth inhibition rate (%) Rice (rice (Oryza sativa L.) [13]): 20% | Growth inhibition rate (%) Velvetleaf [14]: 0% | Growth inhibition rate (%) Barnyardgrass [15]: 100% | Growth inhibition rate (%) Redroot pigweed [16]: 0% | Growth inhibition rate (%) Green foxtail [17]: 99% | Growth inhibition rate (%) Corn (corn (Zea mays L.) [18]): 0% | Growth inhibition rate (%) Crabgrass [19]: 100% | Growth inhibition rate (%) Wheat [20]: 0%
